Measured values from patent US11225470B2, “Tetrazolinone compounds and its use as pest control agents” (SUMITOMO CHEMICAL COMPANY, LIMITED, priority 2016, dated 2022).

Columns and labels:
Format in all cases: in vivo
[1] = test system: cabbage moth (Plutella xylostella); assay: cabbage moth mortality test on cabbage seedling; settings: 120 h, 500 ppm spray on cabbage seedling, five second instar larvae, counted after 5 days, read-out: Morality (%)
Source text: Any of the present compounds 1-4, 1-5, 1-6, 3-9, 3-13, 3-17, 3-23, 3-25, 3-26, 3-29, 3-31, 4-1 or 5-3, each of which was made to a formulation according to the similar method to that of Formulation Example 6, was mixed with water so as to be 500 ppm. The mixtures were sprayed to foliar parts of the cabbage seedling (on the developmental stage of the second to third true leaf) that was planted in a container so as to adhere adequately on the leaves of the above-mentioned cabbage. After the spraying, the stem and leaf of the seedling was cut out and then was installed into the container that was covered with the filter paper. Five heads of cabbage moth (Plutella xylostella) at the second instar larval stages were released into the cup. After 5 days, the surviving insects were counted, and the mortality of insects was calculated by the following equation. Morality (%)={1−the number of the surviving insects/5}×100

[2] = test system: cotton aphid (Aphis gossypii); assay: cotton aphid test on cucumber seedling; settings: 144 h, 500 ppm spray on infested cucumber seedling, counted after 6 days, read-out: Controlling value (%)
[3] = test system: tomato late blight fungi (Phytophthora infestans); settings: 500 ppm foliar spray, inoculation after 1 day; tomato cv PATIO

| Structure (SMILES) | pest or weed control at 500 ppm [1] | pest or weed control at 500 ppm [2] | lesion area compared to the lesion area in an untreated tomato [3] |
| --- | --- | --- | --- |
| CSC(=NCCc1cccc(F)c1)SCc1c(C)cccc1-n1nnn(C)c1=O [3-26] | ≥ 80% |  |  |
| CCC(=NN=C(C)c1cc2ccccc2o1)OCc1c(C)cccc1-n1nnn(C)c1=O [1-2] |  | ≥ 60% |  |
| CCC(=NN=C(C)C(C)=NOCC#N)OCc1c(C)cccc1-n1nnn(C)c1=O [C-13] | ≥ 80% |  |  |
| CSC(=NCc1cccc(C)c1)SCc1c(C)cccc1-n1nnn(C)c1=O [3-11] |  | ≥ 60% |  |
| CCC(=NN=C1CCCc2ccccc21)OCc1c(C)cccc1-n1nnn(C)c1=O [E-25] | ≥ 80% | ≥ 60% |  |
| CCC(=NN=C(C)c1ccc2c(ccn2C)c1)OCc1c(C)cccc1-n1nnn(C)c1=O [D-7] |  | ≥ 60% |  |
| CCC(=NN=C1CCc2c(OC)cccc21)OCc1c(C)cccc1-n1nnn(C)c1=O [E-6] | ≥ 80% | ≥ 60% | ≤ 30% |
| CCC(=NN=C1CCc2ccc(OC)cc21)OCc1c(C)cccc1-n1nnn(C)c1=O [E-8] |  | ≥ 60% |  |
| CCC(=NN=C(C)C(C)=NO)OCc1c(C)cccc1-n1nnn(C)c1=O [B-1] | ≥ 80% |  |  |
| C#CCON=C(C)C(C)=NN=C(CC)OCc1c(C)cccc1-n1nnn(C)c1=O [C-5] | ≥ 80% |  |  |
| CCC(=NN=C1CCc2c(F)cccc21)OCc1c(C)cccc1-n1nnn(C)c1=O [E-2] |  | ≥ 60% |  |
| C=CCON=C(C)C(C)=NN=C(CC)OCc1c(C)cccc1-n1nnn(C)c1=O [C-2] | ≥ 80% | ≥ 60% |  |
| CCC(=NN=C(C)c1cnc2ccccc2c1)OCc1c(C)cccc1-n1nnn(C)c1=O [D-5] | ≥ 80% | ≥ 60% |  |
| CCC(=NN=C(C)C(C)=NOCc1ccccc1)OCc1c(C)cccc1-n1nnn(C)c1=O [C-1] | ≥ 80% | ≥ 60% |  |
| CCC(=NN=C1CCOc2ccccc21)OCc1c(Cl)cccc1-n1nnn(C)c1=O [E-13] | ≥ 80% |  |  |
| CCC(=NN=C1CCc2cccc(F)c21)OCc1c(C)cccc1-n1nnn(C)c1=O [E-5] | ≥ 80% |  |  |
| CCC(=NN=C(C)C(C)=NOCc1ccc(OC)cc1)OCc1c(C)cccc1-n1nnn(C)c1=O [C-12] | ≥ 80% | ≥ 60% |  |
| CCSC(=NCCc1ccccc1)SCc1c(C)cccc1-n1nnn(C)c1=O [3-1] |  | ≥ 60% |  |
| CCC(=NN=C(C)C(C)=NOC(C)C)OCc1c(C)cccc1-n1nnn(C)c1=O [A-3] | ≥ 80% | ≥ 60% |  |
| CSC(=NCCCCc1ccccc1)SCc1c(C)cccc1-n1nnn(C)c1=O [3-29] | ≥ 80% | ≥ 60% |  |
| CCC(=NN=C1CCOc2cc(OC)ccc21)OCc1c(C)cccc1-n1nnn(C)c1=O [E-30] | ≥ 80% | ≥ 60% |  |

| Structure (SMILES) | pest or weed control at 500 ppm [1] | pest or weed control at 500 ppm [2] | lesion area compared to the lesion area in an untreated tomato [3] |
| --- | --- | --- | --- |
| CCC(=NN=C1CCOc2c(F)ccc(F)c21)OCc1c(C)cccc1-n1nnn(C)c1=O [E-27] | ≥ 80% | ≥ 60% |  |
| CCC(=NN=C(C)C(C)=NOCc1cccc(OC)c1)OCc1c(C)cccc1-n1nnn(C)c1=O [C-10] | ≥ 80% | ≥ 60% |  |
| CCC(=NN=C1CCOc2cccc(F)c21)OCc1c(C)cccc1-n1nnn(C)c1=O [E-21] | ≥ 80% |  |  |
| CCc1ccc(N=C(SC)SCc2c(C)cccc2-n2nnn(C)c2=O)cc1 [3-8] |  | ≥ 60% |  |
| CCC(=NN=C(C)c1cnccn1)OCc1c(C)cccc1-n1nnn(C)c1=O [1-4] | ≥ 80% | ≥ 60% |  |
| CC=CCON=C(C)C(C)=NN=C(CC)OCc1c(C)cccc1-n1nnn(C)c1=O [C-3] | ≥ 80% | ≥ 60% |  |
| CC(=NN=C(OCc1c(C)cccc1-n1nnn(C)c1=O)N(C)C)c1ccc(F)cc1 [1-6] | ≥ 80% |  |  |
| CSC(=NCC1CCOCC1)SCc1c(C)cccc1-n1nnn(C)c1=O [3-23] | ≥ 80% |  |  |
| CCC(=NN=C(C)c1cc2ccccc2n1C)OCc1c(C)cccc1-n1nnn(C)c1=O [D-6] |  | ≥ 60% |  |
| CCC(=NN=C1CCOc2cc(F)cc(F)c21)OCc1c(C)cccc1-n1nnn(C)c1=O [E-24] | ≥ 80% | ≥ 60% |  |
| CSC(=NC(C)(C)C)SCc1c(C)cccc1-n1nnn(C)c1=O [3-17] | ≥ 80% |  |  |
| CCC(=NN=C(C)C(C)=NOCCOC)OCc1c(C)cccc1-n1nnn(C)c1=O [C-14] | ≥ 80% | ≥ 60% |  |
| CCC(=NN=C1COc2ccccc21)OCc1c(C)cccc1-n1nnn(C)c1=O [E-10] |  | ≥ 60% |  |
| CCC(=NN=C(C)c1ccn(C)n1)OCc1c(C)cccc1-n1nnn(C)c1=O [D-19] | ≥ 80% |  |  |
| CCC(=NN=C(C)c1ccc2c(c1)OCO2)OCc1c(C)cccc1-n1nnn(C)c1=O [D-8] | ≥ 80% | ≥ 60% |  |
| CCC(=NN=C(C)c1cc2ccccc2s1)OCc1c(C)cccc1-n1nnn(C)c1=O [1-3] |  | ≥ 60% |  |
| CCC(=NN=C1CCOc2ccccc21)OCc1c(OC)cccc1-n1nnn(C)c1=O [E-12] | ≥ 80% | ≥ 60% |  |
| CCON=C(C)C(C)=NN=C(CC)OCc1c(C)cccc1-n1nnn(C)c1=O [A-2] |  | ≥ 60% |  |
| CCC(=NN=C(C)C(C)=NOCc1cccc(C)c1)OCc1c(C)cccc1-n1nnn(C)c1=O [C-11] | ≥ 80% | ≥ 60% |  |
| CCC(=NN=C(C)c1ccc2scnc2c1)OCc1c(C)cccc1-n1nnn(C)c1=O [D-3] | ≥ 80% | ≥ 60% |  |
| CCC(=NN=C1CCOc2ccccc21)OCc1c(C2CC2)cccc1-n1nnn(C)c1=O [E-14] | ≥ 80% | ≥ 60% |  |

| Structure (SMILES) | pest or weed control at 500 ppm [1] | pest or weed control at 500 ppm [2] | lesion area compared to the lesion area in an untreated tomato [3] |
| --- | --- | --- | --- |
| CCC(=NN=C(C)C(C)=NOCc1ccccc1C)OCc1c(C)cccc1-n1nnn(C)c1=O [C-7] |  | ≥ 60% |  |
| CCC(=NN=C(C)c1ccc2c(c1)CCO2)OCc1c(C)cccc1-n1nnn(C)c1=O [D-2] | ≥ 80% | ≥ 60% |  |
| CSC(=NCCc1ccccc1F)SCc1c(C)cccc1-n1nnn(C)c1=O [3-25] | ≥ 80% |  |  |
| CC(=NOCc1c(C)cccc1-n1nnn(C)c1=O)OCCCc1ccccc1 [5-3] | ≥ 80% | ≥ 60% |  |
| CSC(=NCc1ccc(C)cc1)SCc1c(C)cccc1-n1nnn(C)c1=O [3-12] |  | ≥ 60% |  |
| CCC(=NN=C1CCOc2ccccc21)OCc1c(C)cccc1-n1nnn(C)c1=O [E-11] |  | ≥ 60% |  |
| CCC(=NN=C(C)c1cccc2c1OC(F)(F)O2)OCc1c(C)cccc1-n1nnn(C)c1=O [D-9] |  | ≥ 60% |  |
| CCC(=NN=C1CCc2ccc(F)cc21)OCc1c(C)cccc1-n1nnn(C)c1=O [E-4] |  | ≥ 60% |  |
| CSC(=NCc1ccccc1)SCc1c(C)cccc1-n1nnn(C)c1=O [3-9] | ≥ 80% |  |  |
| CCC(=NN=C(C)c1c(C)nn(C)c1Cl)OCc1c(C)cccc1-n1nnn(C)c1=O [D-1] | ≥ 80% | ≥ 60% |  |
| CCC(=NN=C1CCOc2ccc(C)cc21)OCc1c(C)cccc1-n1nnn(C)c1=O [E-26] | ≥ 80% | ≥ 60% |  |
| COc1ccccc1CN=C(SC)SCc1c(C)cccc1-n1nnn(C)c1=O [3-13] | ≥ 80% |  |  |
| CSC(=NCCc1ccccc1Cl)SCc1c(C)cccc1-n1nnn(C)c1=O [3-31] | ≥ 80% |  |  |
| CSC(=Nc1ccc(F)cc1)SCc1c(C)cccc1-n1nnn(C)c1=O [4-6] |  | ≥ 60% |  |
| CSC(=Nc1cccc(C(F)(F)F)c1)SCc1c(C)cccc1-n1nnn(C)c1=O [4-1] | ≥ 80% |  |  |
| CCC(=NN=C1CC[S+]([O-])c2ccccc21)OCc1c(C)cccc1-n1nnn(C)c1=O (stereo not shown) [E-29] | ≥ 80% | ≥ 60% |  |
| CCC(=NN=C1CCSc2ccccc21)OCc1c(C)cccc1-n1nnn(C)c1=O [E-28] | ≥ 80% | ≥ 60% |  |
| CCC(=NN=C1CCc2cc(F)ccc21)OCc1c(C)cccc1-n1nnn(C)c1=O [E-3] |  | ≥ 60% |  |
| CCC(=NN=C(C)c1nc2ccccc2s1)OCc1c(C)cccc1-n1nnn(C)c1=O [1-5] | ≥ 80% |  |  |
